Source: patent publication US20260327244A1, “PYRIDO[4,3-D]PYRIMIDINE COMPOUNDS” (Pfizer Inc., priority 2022, published 2026)
Where a name gives a salt, the structure may show the parent alone. Read-outs that look alike come from different tables or passages of the source.

Tests used:
WT HRAS (aa2-184) = molecular target: T1, WT HRAS (aa2-184) (Homo sapiens, UniProt P01112); assay: SPR binding assay, WT HRAS; settings: SPR at 10 °C, geometric mean when tested more than once
T1 construct: WT HRAS (aa2-184)
Source text: (§1) No additional regeneration was used.
(§2) Compound dissociation was monitored for at least 3600 seconds. […] No additional regeneration was used.

G12V KRAS (aa2-184) [1] = molecular target: T2, G12V KRAS (aa2-184) (Homo sapiens, UniProt P01116, G12V); assay: biochemical
Procedure: (§3) SPR assay was used to measure the kinetic binding constant (KD) of Examples of the present invention.
(§4) The binding affinity and kinetics of Examples of the present invention were measured by Surface Plasmon Resonance (SPR) using Biacore 8K or 8K+ (Cytiva, Marlborough, MA) instruments. Recombinant, C-terminal site-specific biotinylated, wild-type (WT) KRAS (aa1-185), G12D KRAS (aa1-185), G12C KRAS (aa2-184), G12V KRAS (aa2-184), WT HRAS (aa2-184) and WT NRAS (aa2-185) proteins purified in presence of 1 μM GDP were used in these experiments. Binding measurements were performed parallelly in sets of either WT/G12D/G12C/G12V KRAS or WT K/H/N RAS proteins.
(§5) Biacore instrument was desorbed and docked with a Series S Sensor Chip SA. The proteins were diluted to 50 μg/mL with the assay buffer (50 mM HEPES, 150 mM NaCl, 10 μM GDP, 5 mM MgCl2, 0.5 mM TCEP, 5% glycerol, 0.02% Tween-20, 2% DMSO, pH 7.2) and immobilized at a flow rate of 3 μL/min at 10° C. with a contact time of 15 min. to capture ~3000-4000 RUs of proteins on the surface. The functionalized surface was then equilibrated with assay buffer for approximately 1 hour. Un-functionalized SA surfaces with no immobilized protein served as reference for binding kinetic analysis. Compound binding kinetics were measured in either multi-cycle or single-cycle kinetic format.
(§6) A 2-fold, 10-point serial dilution of test compounds was set-up in a 96-well microplate (Greiner; Cat #650101) with a top concentration of either 10 μM or 100 μM. Binding kinetics was measured at 10° C. by injecting serial dilution of compounds onto both reference and RAS immobilized channels at a flow rate of 100 μL/min and association time of 90 seconds. Compound dissociation was monitored for at least 400 seconds during each cycle. No additional regeneration was used. DMSO calibration curve was obtained before and after compound analysis by injecting 0-4% of DMSO in assay buffer. A suitable compound with known affinity and kinetics was tested once in every experiment as a positive control to assess activity of the captured protein on the surface.
(§7) A 3-fold, 6-point serial dilution of compounds was set-up in a deep 96-well microplate (Greiner Bio; Cat #780201) with the highest concentration of 1 μM (concentration range: 0.004-1 μM). Binding kinetics was measured at 10° C. by injecting serial dilutions of compounds in increasing order onto reference as well as RAS immobilized channels at a flow rate of 100 μL/min and association time of 120 seconds. Compound dissociation was monitored for at least 3600 seconds. Two buffer blanks were also run in a single-cycle kinetics format before the compound run for double referencing. No additional regeneration was used. DMSO calibration curve was obtained before and after compound analysis by injecting 0-4% of DMSO in the assay buffer. A suitable compound with known affinity and kinetics was tested once in every experiment as a positive control to assess activity of the captured protein on the surface.
(§8) Both MCK and SCK data were processed and analyzed using Biacore Insight evaluation software (Cytiva, Marlborough, MA)). […] The adequateness of the fit was judged by c^2 values and the randomness of residue distribution.
(§9) A geometric mean of binding constant KD was provided when an Example was tested more than once (n is testing replicate number).

G12C KRAS (aa2-184) [2] = molecular target: T3, G12C KRAS (aa2-184) (Homo sapiens, UniProt P01116, G12C); assay: biochemical
Procedure: as §3, §4, §5, §6, §7, §8, §9

WT NRAS (aa2-185) = molecular target: T4, WT NRAS (aa2-185) (Homo sapiens, UniProt P01111); assay: SPR binding assay, WT NRAS; settings: SPR at 10 °C, geometric mean when tested more than once
T4 construct: WT NRAS (aa2-185)
Source text: as §1, §2

G12D KRAS (aa1-185) [3] = molecular target: T5, G12D KRAS (aa1-185) (Homo sapiens, UniProt P01116, G12D); assay: biochemical;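 note: surface plasmon resonance at 10 °C, KRAS captured on a streptavidin chip in GDP-containing buffer, compound dilution series injected, blank streptavidin surface as reference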
Procedure: as §3, §4, §5, §6, §7, §8, §9

[4] = molecular target: T6, wild-type (WT) KRAS (aa1-185) (Homo sapiens, UniProt P01116); assay: KRAS Surface Plasma Resonance (SPR) binding assay, WT KRAS; settings: SPR at 10 °C, geometric mean when tested more than once
T6 construct: wild-type (WT) KRAS (aa1-185)
Source text: as §1, §2

[5] = Mouse PK study, unbound plasma exposure of Example 33 after oral dosing of female NSG mice; assay type: in vivo; settings: for Cav, ss, u / Cmax, u: unbound Example 33 in plasma, single oral dose 100 mg (active)/kg
Procedure: FIG. 1 provides mouse PK study results showing unbound plasma concentrations of Example 33 in female NSG mouse plasma after oral dosing of female NSG Mice at 100 mg/kg (n=3, mean+/−SD). The solution of Example 33 was prepared using a Pluronic-based formulation [2.5% (w/v) Pluronic F-68 (Poloxamer 188)], and the suspension arms of both Example 33 and Example 34 were prepared using a 0.5% (w/v) methylcellulose formulation.
The solution formulation of Example 33 was an aqueous solution with 2.5% (w/v) Pluronic F-68 (Poloxamer 188). The amorphous suspension formulations of Example 33 and Example 34 were made using in 0.5% (w/v) methylcellulose in water.

G12V KRAS (aa2-184) [6] = molecular target: T2, G12V KRAS (aa2-184)
Procedure: as §3, §4, §5, §6, §7, §8, §9

G12D KRAS (aa1-185) [7] = molecular target: T5, G12D KRAS (aa1-185)
Procedure: as §3, §4, §5, §6, §7, §8, §9

G12C KRAS (aa2-184) [8] = molecular target: T3, G12C KRAS (aa2-184)
Procedure: as §3, §4, §5, §6, §7, §8, §9

[9] = suspension, relative to Example 33 suspension, 100 mg (active)/kg oral
[10] = suspension (0.5% methylcellulose)

T3 sequence (P01116 2-184 isoform P01116-2 G12C): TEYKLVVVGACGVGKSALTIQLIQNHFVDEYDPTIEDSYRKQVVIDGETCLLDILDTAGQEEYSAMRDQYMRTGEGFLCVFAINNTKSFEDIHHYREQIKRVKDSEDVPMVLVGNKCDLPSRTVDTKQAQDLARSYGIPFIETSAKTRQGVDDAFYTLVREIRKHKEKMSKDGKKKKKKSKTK
T6 sequence (P01116 1-185 isoform P01116-2): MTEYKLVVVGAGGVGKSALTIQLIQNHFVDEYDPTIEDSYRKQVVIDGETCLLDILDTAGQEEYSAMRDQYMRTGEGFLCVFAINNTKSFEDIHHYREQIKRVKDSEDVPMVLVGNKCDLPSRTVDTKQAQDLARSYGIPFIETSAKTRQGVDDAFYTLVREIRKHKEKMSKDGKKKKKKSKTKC
T5 sequence (P01116 1-185 isoform P01116-2 G12D): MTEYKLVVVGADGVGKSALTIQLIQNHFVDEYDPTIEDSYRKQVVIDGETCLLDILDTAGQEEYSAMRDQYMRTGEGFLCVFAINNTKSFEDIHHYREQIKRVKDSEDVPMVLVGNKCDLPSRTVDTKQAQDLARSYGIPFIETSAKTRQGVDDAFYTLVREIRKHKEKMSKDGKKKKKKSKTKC
T2 sequence (P01116 2-184 isoform P01116-2 G12V): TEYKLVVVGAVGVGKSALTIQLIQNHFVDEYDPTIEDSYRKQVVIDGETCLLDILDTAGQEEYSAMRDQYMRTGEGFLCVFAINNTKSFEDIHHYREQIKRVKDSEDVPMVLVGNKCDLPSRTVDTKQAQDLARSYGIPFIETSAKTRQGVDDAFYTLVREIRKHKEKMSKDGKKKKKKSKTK
T1 sequence (P01112 2-184): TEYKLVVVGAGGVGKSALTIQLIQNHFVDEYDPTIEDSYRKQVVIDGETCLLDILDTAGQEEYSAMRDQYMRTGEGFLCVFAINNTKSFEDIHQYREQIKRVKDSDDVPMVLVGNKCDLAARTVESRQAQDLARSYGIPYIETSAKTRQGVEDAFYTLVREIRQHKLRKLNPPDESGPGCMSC
T4 sequence (P01111 2-185): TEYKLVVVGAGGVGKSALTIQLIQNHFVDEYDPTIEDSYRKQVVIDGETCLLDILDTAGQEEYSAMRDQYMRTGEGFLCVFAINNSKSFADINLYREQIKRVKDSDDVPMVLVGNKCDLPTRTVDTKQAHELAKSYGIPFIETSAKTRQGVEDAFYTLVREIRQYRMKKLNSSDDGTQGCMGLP

Kd (WT HRAS (aa2-184)) [nM]	Kd (G12V KRAS (aa2-184) [1]) [nM]	Kd (G12C KRAS (aa2-184) [2]) [nM]	Kd (WT NRAS (aa2-185)) [nM]	Kd (G12D KRAS (aa1-185) [3]) [nM]	Kd [4] [nM]	Compound	also measured
473	–	–	–	–	–	C#Cc1c(F)ccc2cc(O)cc(-c3nc4c5c(nc(OC[C@@]67CCCN6C[C@H](F)C7)nc5c3F)N3CCCC[C@H]3CO4)c12 [Example 23, 5-ethynyl-6-fluoro-4-[(8aS)-4-fluoro-2-{[(2R,7aS)-2-fluorotetrahydro-1H-pyrrolizin-7a(5H)-yl]methoxy}-8,8a,9,10,11,12-hexahydro-7-oxa-1,3,6,12a-tetraazabenzo[4,5]cyclohepta[1,2,3-de]naphthalen-5-yl]naphthalen-2-ol]	–
725	0.098	0.629	1000	0.138	0.075	Oc1cc(-c2ncc3c(N4C[C@@H]5C[C@H](C4)[C@H](O)C5)nc(OC[C@@]45CCCN4C[C@H](F)C5)nc3c2F)c2c(Cl)cccc2c1 [Example 20, (1R,5R,6R)-3-[7-(8-chloro-3-hydroxynaphthalen-1-yl)-8-fluoro-2-{[(2R,7aS)-2-fluorotetrahydro-1H-pyrrolizin-7a(5H)-yl]methoxy}pyrido[4,3-d]pyrimidin-4-yl]-3-azabicyclo[3.2.1]octan-6-ol]	–
71.5	4.86	0.681	346	0.297	0.03	C#Cc1c(F)ccc2cc(O)cc(-c3ncc4c(N5C[C@@H]6C[C@H](C5)[C@H](O)C6)nc(OC[C@@]56CCCN5C[C@H](F)C6)nc4c3F)c12 [Example 10, (1R,5R,6R)-3-[7-(8-ethynyl-7-fluoro-3-hydroxynaphthalen-1-yl)-8-fluoro-2-{[(2R,7aS)-2-fluorotetrahydro-1H-pyrrolizin-7a(5H)-yl]methoxy}pyrido[4,3-d]pyrimidin-4-yl]-3-azabicyclo[3.2.1]octan-6-ol]	–
–	46.7	42.4	–	36.9	11.9	Oc1cc(-c2ncc3c(N4C[C@@H]5C[C@H](O)[C@@H]5C4)nc(OC[C@@]45CCCN4C[C@H](F)C5)nc3c2F)c2c(Cl)cccc2c1 (relative stereo) [Example 22, (1R*,5S*,6S*)-3-[7-(8-chloro-3-hydroxynaphthalen-1-yl)-8-fluoro-2-{[(2R,7aS)-2-fluorotetrahydro-1H-pyrrolizin-7a(5H)-yl]methoxy}pyrido[4,3-d]pyrimidin-4-yl]-3-azabicyclo[3.2.0]heptan-6-ol]	–
> 10000	5.73	8.57	> 10000	23.8	5.82	Oc1cc(-c2ncc3c(N4C[C@H]5CC[C@@H](C4)O5)nc(OC[C@@]45CCCN4C[C@H](F)C5)nc3c2F)c2c(F)c(F)ccc2c1 [Example 16, 5,6-difluoro-4-(8-fluoro-2-{[(2R,7aS)-2-fluorotetrahydro-1H-pyrrolizin-7a(5H)-yl]methoxy}-4-[(1R,5S)-8-oxa-3-azabicyclo[3.2.1]octan-3-yl]pyrido[4,3-d]pyrimidin-7-yl)naphthalen-2-ol, acetic acid salt]	–
–	1.46	1.9	–	1.01	1.76	Oc1cc(-c2ncc3c(N4C[C@H]5C[C@@H](O)[C@H]5C4)nc(OC[C@@]45CCCN4C[C@H](F)C5)nc3c2F)c2c(Cl)cccc2c1 (relative stereo) [Example 21, (1S*,5R*,6R*)-3-[7-(8-chloro-3-hydroxynaphthalen-1-yl)-8-fluoro-2-{[(2R,7aS)-2-fluorotetrahydro-1H-pyrrolizin-7a(5H)-yl]methoxy}pyrido[4,3-d]pyrimidin-4-yl]-3-azabicyclo[3.2.0]heptan-6-ol]	–
–	0.028	0.064	–	0.03	0.061	C#Cc1c(F)ccc2cc(O)cc(-c3nc4c5c(nc(OC[C@@]67CCCN6C[C@H](F)C7)nc5c3F)N3CCC[C@@H](O)[C@H]3CO4)c12 [Example 28, (8aR,9R)-5-(8-ethynyl-7-fluoro-3-hydroxynaphthalen-1-yl)-4-fluoro-2-{[(2R,7aS)-2-fluorotetrahydro-1H-pyrrolizin-7a(5H)-yl]methoxy}-8,8a,9,10,11,12-hexahydro-7-oxa-1,3,6,12a-tetraazabenzo[4,5]cyclohepta[1,2,3-de]naphthalen-9-ol]	–
–	3.69	1.94	–	14.1	0.308	C#Cc1cccc2cc(O)cc(-c3ncc4c(N5CCN(C(C)=O)[C@@H](CC#N)C5)nc(OC[C@@]56CCCN5C[C@H](F)C6)nc4c3F)c12 [Example 4, {(2S)-1-acetyl-4-[7-(8-ethynyl-3-hydroxynaphthalen-1-yl)-8-fluoro-2-{[(2R,7aS)-2-fluorotetrahydro-1H-pyrrolizin-7a(5H)-yl]methoxy}pyrido[4,3-d]pyrimidin-4-yl]piperazin-2-yl}acetonitrile]	–

The next lines start with the compound.

Compound	Kd (WT HRAS (aa2-184)) [nM]	Kd (G12V KRAS (aa2-184) [1]) [nM]	Kd (G12C KRAS (aa2-184) [2]) [nM]	Kd (WT NRAS (aa2-185)) [nM]	Kd (G12D KRAS (aa1-185) [3]) [nM]	Kd [4] [nM]	also measured
CC(=O)N1CCN(c2nc(OC[C@@]34CCCN3C[C@H](F)C4)nc3c(F)c(-c4cc(O)cc5ccc(F)c(F)c45)ncc23)C[C@@H]1CC#N [Example 13, {(2S)-1-acetyl-4-[7-(7,8-difluoro-3-hydroxynaphthalen-1-yl)-8-fluoro-2-{[(2R,7aS)-2-fluorotetrahydro-1H-pyrrolizin-7a(5H)-yl]methoxy}pyrido[4,3-d]pyrimidin-4-yl]piperazin-2-yl}acetonitrile]	8920	10.4	7.56	> 10000	59.8	1.25	–
C#Cc1cccc2cc(O)cc(-c3ncc4c(N5CC[C@H](CC#N)C5)nc(OC[C@@]56CCCN5C[C@H](F)C6)nc4c3F)c12 [Example 3, {(3R)-1-[7-(8-ethynyl-3-hydroxynaphthalen-1-yl)-8-fluoro-2-{[(2R,7aS)-2-fluorotetrahydro-1H-pyrrolizin-7a(5H)-yl]methoxy}pyrido[4,3-d]pyrimidin-4-yl]pyrrolidin-3-yl}acetonitrile]	> 10000	10.8	11	> 10000	12.3	4.79	–
C#Cc1c(F)ccc2cc(OCOP(=O)(O)O)cc(-c3nc4c5c(nc(OC[C@@]67CCCN6C[C@H](F)C7)nc5c3F)N3CCCOC[C@H]3CO4)c12 [Example 34, ({5-ethynyl-6-fluoro-4-[(8aS)-4-fluoro-2-{[(2R,7aS)-2-fluorotetrahydro-1H-pyrrolizin-7a(5H)-yl]methoxy}-8a,9,12,13-tetrahydro-8H,11H-7,10-dioxa-1,3,6,13a-tetraazanaphtho[1,8-ab]heptalen-5-yl]naphthalen-2-yl}oxy)methyl dihydrogen phosphate]	–	–	–	–	–	–	Cav Fold Increase [5, 9]: 10.4; Cav, ss, u [5, 10]: 3.84 nM
C#Cc1c(F)c(F)cc2cc(O)cc(-c3nc4c5c(nc(OC[C@@]67CCCN6C[C@H](F)C7)nc5c3F)N3CCCC[C@H]3CO4)c12 [Example 33, 5-ethynyl-6,7-difluoro-4-[(8aS)-4-fluoro-2-{[(2R,7aS)-2-fluorotetrahydro-1H-pyrrolizin-7a(5H)-yl]methoxy}-8,8a,9,10,11,12-hexahydro-7-oxa-1,3,6,12a-tetraazabenzo[4,5]cyclohepta[1,2,3-de]naphthalen-5-yl]naphthalen-2-ol]	–	–	–	–	–	0.023	Cav Fold Increase [5, 9]: 1; Cmax Fold increase [5, 9]: 1; Cav, ss, u ([5]; solution (2.5% Pluronic F-68)): 0.30 nM; Cmax, u ([5]; solution (2.5% Pluronic F-68)): 0.60 nM; Cav, ss, u [5, 10]: 0.37 nM; Cmax, u [5, 10]: 0.48 nM; Kd (G12V KRAS (aa2-184) [6]): 0.096 nM; Kd (G12D KRAS (aa1-185) [7]): 0.019 nM; Kd (G12C KRAS (aa2-184) [8]): 0.019 nM
Oc1cc(-c2ncc3c(N4C[C@@H]5C[C@H](C4)[C@H](O)C5)nc(OC[C@@]45CCCN4C[C@H](F)C5)nc3c2F)c2c(F)c(F)ccc2c1 [Example 14, (1R,5R,6R)-3-[7-(7,8-difluoro-3-hydroxynaphthalen-1-yl)-8-fluoro-2-{[(2R,7aS)-2-fluorotetrahydro-1H-pyrrolizin-7a(5H)-yl]methoxy}pyrido[4,3-d]pyrimidin-4-yl]-3-azabicyclo[3.2.1]octan-6-ol]	198	0.461	0.263	656	0.092	0.006	–
N#CC[C@@H]1CCCN(c2nc(OC[C@@]34CCCN3C[C@H](F)C4)nc3c(F)c(-c4cc(O)cc5ccc(F)c(F)c45)ncc23)C1 [Example 12, {(3S)-1-[7-(7,8-difluoro-3-hydroxynaphthalen-1-yl)-8-fluoro-2-{[(2R,7aS)-2-fluorotetrahydro-1H-pyrrolizin-7a(5H)-yl]methoxy}pyrido[4,3-d]pyrimidin-4-yl]piperidin-3-yl}acetonitrile]	606	0.117	1.13	1000	0.045	0.022	–
